According to US20250320213A1, “Nitrogen-Containing Heterocyclic Compounds” (Pfizer Inc., priority 2024, published 2025):

What follows are compounds tested against T1, STAT6 (Homo sapiens, UniProt P42226) (assay: STAT6 Reporter Luciferase Assay (IL-13 stimulated HaCaT keratinocyte NanoLuc reporter cells)). Details: IL-13 stimulated HaCaT STAT6 NanoLuc reporter cells; read-out: Reporter EC50.
T1 construct: stably transfected HaCaT keratinocyte cell line, which expresses NanoLuc luciferase reporter gene under the transcriptional control of the STAT6 responsive promoter; endogenous in cells; host or cells: HaCaT keratinocyte reporter cell line (stably transfected with a NanoLuc reporter)
T1 sequence (P42226 1-847): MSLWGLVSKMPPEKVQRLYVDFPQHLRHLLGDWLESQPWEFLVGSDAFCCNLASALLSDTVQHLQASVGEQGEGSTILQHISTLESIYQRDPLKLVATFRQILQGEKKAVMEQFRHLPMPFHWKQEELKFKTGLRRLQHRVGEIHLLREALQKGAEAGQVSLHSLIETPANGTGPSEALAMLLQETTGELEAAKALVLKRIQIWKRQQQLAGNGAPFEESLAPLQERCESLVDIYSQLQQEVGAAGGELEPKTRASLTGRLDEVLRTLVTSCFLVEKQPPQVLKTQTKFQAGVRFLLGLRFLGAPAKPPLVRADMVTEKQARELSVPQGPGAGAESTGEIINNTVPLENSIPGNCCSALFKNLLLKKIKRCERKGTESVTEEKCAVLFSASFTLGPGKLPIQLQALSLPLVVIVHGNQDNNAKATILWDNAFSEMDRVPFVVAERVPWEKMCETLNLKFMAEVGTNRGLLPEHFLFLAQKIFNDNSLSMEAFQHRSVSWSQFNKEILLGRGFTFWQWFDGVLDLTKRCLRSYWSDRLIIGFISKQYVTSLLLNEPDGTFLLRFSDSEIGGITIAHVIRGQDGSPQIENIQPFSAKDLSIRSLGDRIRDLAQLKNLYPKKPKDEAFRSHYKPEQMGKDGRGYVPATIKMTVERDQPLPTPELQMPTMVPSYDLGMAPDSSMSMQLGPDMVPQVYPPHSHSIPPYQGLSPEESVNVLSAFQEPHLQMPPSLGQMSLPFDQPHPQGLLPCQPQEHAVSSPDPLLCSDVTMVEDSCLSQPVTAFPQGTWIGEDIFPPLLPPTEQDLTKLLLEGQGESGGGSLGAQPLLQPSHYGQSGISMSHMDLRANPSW
Assay type: cell-based
Protocol: Pharmacological measurements of STAT6 transcriptional activity through the IL-13-IL-13 receptor/IL-4 receptor pathway were made with a stably transfected HaCaT keratinocyte cell line, which expresses NanoLuc luciferase reporter gene under the transcriptional control of the STAT6 responsive promoter for IL-13Ra2. The readout of the STAT6 activity utilized Promega Nano-Glo Luciferase assay kit.
The reporter cells were cultured in a growth media comprised of DMEM High Glucose, no calcium and no glutamine, 10% heat inactivated fetal bovine serum (HI FBS), 1% 100× Glutamax, and 100 U/mL Penicillin-Streptomycin (units of penicillin in 1 mL of streptomycin). Seven thousand cells were plated in 25 microliter (μL) per well in a 384-well, white bottom, tissue culture plate. Cells were cultured overnight at 37° C. The next day, test compounds (solubilized and serially diluted in DMSO, in an 11 point, 4-fold dilution series in duplicate) were spotted, 60 nanoliters (nL) per well, into a 384 well v-bottom polypropylene plate. Thirty μL per well of 37° C. dosing media (Dulbecco's modified eagle medium (DMEM) High Glucose, no calcium and no glutamine with 2% HI FBS) was added to the compound plate. Growth media was removed from the cell plate, and the cells were washed with DPBS. Twenty μL per well of compounds diluted in dosing media were transferred from the compound plate to the cell plate and the compounds were further diluted with an additional 15 μL of dosing media in the cell plate: the cell plate was incubated for two hours at 37° C. After two hours, STAT6 activity was stimulated with the addition of 5 μL per well of IL-13 (R&D Systems) in dosing media with a final concentration of 0.12 nM IL13. Cells were incubated at 37° C. for 4 hours to allow for reporter gene expression, then all media was removed from the plate. The cell plates were treated with assay buffer and Luciferase substrate from Nano-Glo Luciferase Assay Kit for 15 min and then measured for luminescence on an EnVision 2105 multilabel reader (PerkinElmer).

EC50 | SMILES
1 nM | COCC1(N)CCN(C(=O)Nc2ccc(CNC(=O)c3nn(C(C)C)c4c3CN(c3ccc(C(=O)N(C)C)cc3)C[C@@H]4C)cc2)C1 (single isomer, unassigned) [Example 672, (S)-N-(4-((R*)-3-amino-3-(methoxymethyl)pyrrolidine-1-carboxamido)benzyl)-5-(4-(dimethylcarbamoyl)phenyl)-1-isopropyl-7-methyl-4,5,6,7-tetrahydro-1H-pyrazolo[4,3-c]pyridine-3-carboxamide]
2 nM | COCC1(N)CCN(C(=O)Nc2ccc(CNC(=O)c3nn(C(C)C)c4c3CN(c3ccc(C(=O)N(C)C)cc3)C[C@@H]4C)cc2)C1 (single isomer, unassigned) [Example 673, (S)-N-(4-((R*)-3-amino-3-(methoxymethyl)pyrrolidine-1-carboxamido)benzyl)-5-(4-(dimethylcarbamoyl)phenyl)-1-isopropyl-7-methyl-4,5,6,7-tetrahydro-1H-pyrazolo[4,3-c]pyridine-3-carboxamide]
0.3 nM | CC(C)n1nc(C(=O)NCc2ccc(NC(=O)N3CCN(C)CC3)cc2)c2c1C(C(F)(F)F)CN(c1ccc(C(=O)N(C)C)cn1)C2 (single isomer, unassigned) [Example 692, rel-(R or S)-5-(5-(dimethylcarbamoyl)pyridin-2-yl)-1-isopropyl-N-(4-(4-methylpiperazine-1-carboxamido)benzyl)-7-(trifluoromethyl)-4,5,6,7-tetrahydro-1H-pyrazolo[4,3-c]pyridine-3-carboxamide]
16 nM | CC(C)n1nc(C(=O)NCc2ccc(NC(=O)N3CCN(C)CC3)cc2)c2c1C(C(F)(F)F)CN(c1ccc(C(=O)N(C)C)cn1)C2 (single isomer, unassigned) [Example 693, rel-(R or S)-5-(5-(dimethylcarbamoyl)pyridin-2-yl)-1-isopropyl-N-(4-(4-methylpiperazine-1-carboxamido)benzyl)-7-(trifluoromethyl)-4,5,6,7-tetrahydro-1H-pyrazolo[4,3-c]pyridine-3-carboxamide]
0.3 nM | CCn1nc(C(=O)NCc2ccc(NC(=O)N3CCN(C)CC3)cc2)c2c1C(C(F)(F)F)CN(c1ccc(C(=O)N(C)C)cn1)C2 (single isomer, unassigned) [Example 694, rel-(R or S)-5-(5-(dimethylcarbamoyl)pyridin-2-yl)-1-ethyl-N-(4-(4-methylpiperazine-1-carboxamido)benzyl)-7-(trifluoromethyl)-4,5,6,7-tetrahydro-1H-pyrazolo[4,3-c]pyridine-3-carboxamide]
32 nM | CCn1nc(C(=O)NCc2ccc(NC(=O)N3CCN(C)CC3)cc2)c2c1C(C(F)(F)F)CN(c1ccc(C(=O)N(C)C)cn1)C2 (single isomer, unassigned) [Example 695, rel-(R or S)-5-(5-(dimethylcarbamoyl)pyridin-2-yl)-1-ethyl-N-(4-(4-methylpiperazine-1-carboxamido)benzyl)-7-(trifluoromethyl)-4,5,6,7-tetrahydro-1H-pyrazolo[4,3-c]pyridine-3-carboxamide]
10 nM | CC(C)n1nc(C(=O)NCc2ccc(NC(=O)N3CCN(C)CC3)cc2)c2c1C(C(F)(F)F)CN(c1ccc(C(=O)N(C)C)cc1)C2 (single isomer, unassigned) [Example 702, rel-(R or S)-5-(4-(dimethylcarbamoyl)phenyl)-1-isopropyl-N-(4-(4-methylpiperazine-1-carboxamido)benzyl)-7-(trifluoromethyl)-4,5,6,7-tetrahydro-1H-pyrazolo[4,3-c]pyridine-3-carboxamide]
0.2 nM | CC(C)n1nc(C(=O)NCc2ccc(NC(=O)N3CCN(C)CC3)cc2)c2c1C(C(F)(F)F)CN(c1ccc(C(=O)N(C)C)cc1)C2 (single isomer, unassigned) [Example 705, rel-(R or S)-5-(4-(dimethylcarbamoyl)phenyl)-1-isopropyl-N-(4-(4-methylpiperazine-1-carboxamido)benzyl)-7-(trifluoromethyl)-4,5,6,7-tetrahydro-1H-pyrazolo[4,3-c]pyridine-3-carboxamide]

More lines, now with the values behind:

SMILES | EC50
COCCC1(N)CCN(C(=O)Nc2ccc(CNC(=O)c3nn(C(C)C)c4c3CN(c3ccc(C(=O)N(C)C)cc3)C[C@@H]4C)cc2)C1 (single isomer, unassigned) [Example 671, (S)-N-(4-((R*)-3-amino-3-(2-methoxyethyl)pyrrolidine-1-carboxamido)benzyl)-5-(4-(dimethylcarbamoyl)phenyl)-1-isopropyl-7-methyl-4,5,6,7-tetrahydro-1H-pyrazolo[4,3-c]pyridine-3-carboxamide] | 3 nM
CCn1nc2c(c1C(=O)NCc1ccc(NC(=O)N(C)C)cc1)CN(c1ccc(C(=O)N(C)C)cn1)[C@@H](C)[C@@H]2C (stereo in doubt) [Example 316, rel-(6S,7S)-5-(5-(dimethylcarbamoyl)pyridin-2-yl)-N-(4-(3,3-dimethylureido)benzyl)-2-ethyl-6,7-dimethyl-4,5,6,7-tetrahydro-2H-pyrazolo[4,3-c]pyridine-3-carboxamide] | 3770 nM
CCn1nc2c(c1C(=O)NCc1ccc(NC(=O)N(C)C)cc1)CN(c1ccc(C(=O)N(C)C)cn1)[C@H](C)[C@H]2C (stereo in doubt) [Example 317, rel-(6R,7R)-5-(5-(dimethylcarbamoyl)pyridin-2-yl)-N-(4-(3,3-dimethylureido)benzyl)-2-ethyl-6,7-dimethyl-4,5,6,7-tetrahydro-2H-pyrazolo[4,3-c]pyridine-3-carboxamide] | 355 nM
CC(C)n1nc(C(=O)NCc2ccc(NC(=O)N3CC4CC4C3)cc2)c2c1CCN(c1ccc(C(=O)N(C)C)cn1)C2 (stereo not shown) [Example 186, N-(4-(3-azabicyclo[3.1.0]hexane-3-carboxamido)benzyl)-5-(5-(dimethylcarbamoyl)pyridin-2-yl)-1-isopropyl-4,5,6,7-tetrahydro-1H-pyrazolo[4,3-c]pyridine-3-carboxamide] | 10 nM
CC(=O)N[C@H]1CCN(C(=O)c2ccc(N3CCc4c(c(C(=O)NCc5ccc(NC(=O)N(C)C)cc5)nn4C(C)C)C3)nc2)C1 [Example 193, (S)-5-(5-(3-Acetamidopyrrolidine-1-carbonyl)pyridin-2-yl)-N-(4-(3,3-dimethylureido)benzyl)-1-isopropyl-4,5,6,7-tetrahydro-1H-pyrazolo[4,3-c]pyridine-3-carboxamide] | 372 nM
CC(C)n1nc(C(=O)NCc2ccc(NC(=O)N(C)C)cc2)c2c1CCN(c1ccc(C(=O)N3CCCOCC3)cn1)C2 [Example 195, 5-(5-(1,4-oxazepane-4-carbonyl)pyridin-2-yl)-N-(4-(3,3-dimethylureido)benzyl)-1-isopropyl-4,5,6,7-tetrahydro-1H-pyrazolo[4,3-c]pyridine-3-carboxamide] | 164 nM

Same assay, conditions: STAT6 NanoLuc luciferase reporter, IL-13 stimulated HaCaT keratinocyte cells; read-out: Reporter EC50

EC50 | SMILES
5 nM | CC(C)n1nc(C(=O)NCc2ccc(NC(=O)N3CCC(CC#N)CC3)cc2)c2c1CCN(c1ccc(C(=O)N(C)C)cn1)C2 [Example 149, N-(4-(4-(cyanomethyl)piperidine-1-carboxamido)benzyl)-5-(5-(dimethylcarbamoyl)pyridin-2-yl)-1-isopropyl-4,5,6,7-tetrahydro-1H-pyrazolo[4,3-c]pyridine-3-carboxamide]
9 nM | CC(C)n1nc(C(=O)NCc2ccc(NC(=O)N3CCCC(N(C)C)C3)cc2)c2c1CCN(c1ccc(C(=O)N(C)C)cn1)C2 (stereo not shown) [Example 151, N-(4-(3-(dimethylamino)piperidine-1-carboxamido)benzyl)-5-(5-(dimethylcarbamoyl)pyridin-2-yl)-1-isopropyl-4,5,6,7-tetrahydro-1H-pyrazolo[4,3-c]pyridine-3-carboxamide]
